Assay results taken from patent US20020137929A1, “1 - (3-heterocyclylphenyl) isothiourea, -isourea, -guanidine and -amidine herbicidal agents” (Intellectual Property Department, BASF Aktiengesellschaft, priority 1998, published 2002).

Columns and labels:
ABUTH (Velvetleaf) = assay: Preemergence herbicidal evaluation; type: in vivo, Abutilon theophrasti; settings: rated 4-5 weeks after treatment
Summary of the method: (§1)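 Test compound, dissolved in aqueous acetone, was sprayed over planted soil cups at an equivalent of about 0.0156 to 0.500 kg/ha; seeds had been mixed with potting soil. Greenhouse growth followed, with visual 0-9 scoring of injury at four to five weeks.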

ZEAMX (Corn, Field) = assay: Preemergence herbicidal evaluation; type: in vivo, Zea mays; settings: rated 4-5 weeks after treatment
Summary of the method: as §1

[1] = test system: ECHORC (Watergrass (Calif.)); assay: Postemergence weed control under flooded paddy conditions; type: in vivo, Echinochloa oryzoides; settings: postemergence weeds, 3-4 weeks after treatment
Summary of the method: (§2)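 Flood-water application, about 0.0313–0.500 kg/ha a.i. in aqueous/acetone 50/50 v/v; water depth 1.5–3 cm throughout. Weeds 3–5 cm, rice 1.5–2.5 leaf. Greenhouse; 0–9 visual rating vs control at 3–4 wk.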

[2] = test system: SAGPY (Arrowhead (Pygmaea)); assay: as above; type: in vivo, Sagittaria pygmaea; settings: postemergence weeds, 3-4 weeks after treatment
Summary of the method: as §2

GALAP (Galium) = assay: Postemergence herbicidal evaluation; type: in vivo, Galium aparine; settings: for GALAP herbicidal rating: postemergence
Summary of the method: (§3)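 Two-week seedlings sprayed postemergence at 40 psi; formulation: 1:1 acetone/water, 0.5% TWEEN 20; application ≈0.0156–0.500 kg/ha. Greenhouse grow-out, then 0–9 visual scoring at 4–5 weeks.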

[3] = test system: IPOHE (Morningglory, Ivyleaf); assay: Preemergence herbicidal evaluation; type: in vivo, Ipomoea hederacea; settings: rated 4-5 weeks after treatment
Summary of the method: as §1

[4] = test system: ECHORC (Watergrass (Calif.)); assay: Preemergence weed control under flooded paddy conditions; type: in vivo, Echinochloa oryzoides; settings: rated 3-4 weeks after treatment
Summary of the method: (§4)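 Herbicidal effect is scored visually on a 0-9 scale against an untreated control, three to four weeks after compounds are pipetted into the flood water (1.5 to 3 cm deep) over seeds planted in silt loam at 0.5 cm depth. Rates: about 0.0313 to 0.500 kg/ha.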

[5] = test system: IPOHE (Morningglory, Ivyleaf); assay: Postemergence herbicidal evaluation; type: in vivo, Ipomoea hederacea; settings: for IPOHE herbicidal rating: postemergence
Summary of the method: as §3

ECHCG (Barnyardgrass) = assay: Preemergence herbicidal evaluation; type: in vivo, Echinochloa crus-galli; settings: rated 4-5 weeks after treatment
Summary of the method: as §1

CYPIR (Rice Flatsedge) = assay: Preemergence weed control under flooded paddy conditions; type: in vivo, Cyperus iria; settings: rated 3-4 weeks after treatment
Summary of the method: as §4

MOOVA (Monochoria) = assay: as above; type: in vivo, Monochoria vaginalis; settings: rated 3-4 weeks after treatment
Summary of the method: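 Greenhouse paddy assay. Acetone/water (50/50 v/v) solutions dosed into flood water, equivalent to about 0.0313 to 0.500 kg/ha active ingredient, over seeds planted 0.5 cm deep in silt loam. Score: 0-9 visual, based on stand, vigor, malformation, size and chlorosis, 3 to 4 weeks after treatment.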

[6] = test system: TRZAWR (Wheat, Winter, cv Riband); assay: Postemergence herbicidal evaluation; type: in vivo, Triticum aestivum; settings: for TRZAWR herbicidal rating: postemergence
Summary of the method: as §3

SETVI (Foxtail, Green) [7] = assay: Preemergence herbicidal evaluation; type: in vivo, Setaria viridis; settings: rated 4-5 weeks after treatment
Summary of the method: as §1

SETVI (Foxtail, Green) [8] = assay: Postemergence herbicidal evaluation; type: in vivo, Setaria viridis; settings: for SETVI herbicidal rating: postemergence
Summary of the method: as §3

O=C(O)CC1SC(=Nc2cc(N3C(=O)C4=C(CCCC4)C3=O)c(F)cc2Cl)N(CC(=O)O)C1=O (centres unmarked) [Compound 48, 2-{[2-Chloro-5-(1-cyclohexene-1,2-dicarboximido)-4-fluorophenyl]imino}-4-oxo-3,5-thiazolidinediacetic acid]
Preemergence herbicidal rating ABUTH (ABUTH (Velvetleaf); rate 0.0156 kg/ha): 0.0 | Preemergence herbicidal rating ABUTH (ABUTH (Velvetleaf); rate 0.0313 kg/ha): 0.0 | Preemergence herbicidal rating ABUTH (ABUTH (Velvetleaf); rate 0.0625 kg/ha): 4.0 | Preemergence herbicidal rating ABUTH (ABUTH (Velvetleaf); rate 0.1250 kg/ha): 9.0 | Preemergence herbicidal rating ABUTH (ABUTH (Velvetleaf); rate 0.2500 kg/ha): 9.0 | Preemergence herbicidal rating ZEAMX (ZEAMX (Corn, Field); rate 0.0156 kg/ha): 0.0 | Preemergence herbicidal rating ZEAMX (ZEAMX (Corn, Field); rate 0.0313 kg/ha): 0.0 | Preemergence herbicidal rating ZEAMX (ZEAMX (Corn, Field); rate 0.0625 kg/ha): 0.0 | Preemergence herbicidal rating ZEAMX (ZEAMX (Corn, Field); rate 0.1250 kg/ha): 0.0 | Preemergence herbicidal rating ZEAMX (ZEAMX (Corn, Field); rate 0.2500 kg/ha): 2.0 | Herbicidal rating ECHORC ([1]; rate 0.1250 kg/ha): 3.0 | Herbicidal rating ECHORC ([1]; rate 0.2500 kg/ha): 6.0 | Herbicidal rating SAGPY ([2]; rate 0.1250 kg/ha): 3.0 | Herbicidal rating SAGPY ([2]; rate 0.2500 kg/ha): 6.0 | Postemergence herbicidal rating GALAP (GALAP (Galium); Rate 0.0156 kg/ha): 0.0 | Postemergence herbicidal rating GALAP (GALAP (Galium); Rate 0.0313 kg/ha): 0.0 | Postemergence herbicidal rating GALAP (GALAP (Galium); Rate 0.0625 kg/ha): 0.0 | Preemergence herbicidal rating IPOHE ([3]; rate 0.0156 kg/ha): 0.0 | Preemergence herbicidal rating IPOHE ([3]; rate 0.0313 kg/ha): 0.0 | Preemergence herbicidal rating IPOHE ([3]; rate 0.0625 kg/ha): 0.0 | Preemergence herbicidal rating IPOHE ([3]; rate 0.2500 kg/ha): 0.0 | Herbicidal rating ECHORC ([4]; 0.1250 kg/ha): 3.0 | Herbicidal rating ECHORC ([4]; 0.2500 kg/ha): 6.0 | Postemergence herbicidal rating IPOHE ([5]; Rate 0.0156 kg/ha): 9.0 | Postemergence herbicidal rating IPOHE ([5]; Rate 0.0313 kg/ha): 9.0 | Postemergence herbicidal rating IPOHE ([5]; Rate 0.0625 kg/ha): 9.0 | Preemergence herbicidal rating ECHCG (ECHCG (Barnyardgrass); rate 0.0156 kg/ha): 0.0 | Preemergence herbicidal rating ECHCG (ECHCG (Barnyardgrass); rate 0.0313 kg/ha): 0.0 | Preemergence herbicidal rating ECHCG (ECHCG (Barnyardgrass); rate 0.0625 kg/ha): 0.0 | Preemergence herbicidal rating ECHCG (ECHCG (Barnyardgrass); rate 0.1250 kg/ha): 0.0 | Preemergence herbicidal rating ECHCG (ECHCG (Barnyardgrass); rate 0.2500 kg/ha): 0.0 | Herbicidal rating CYPIR (CYPIR (Rice Flatsedge); 0.1250 kg/ha): 2.0 | Herbicidal rating CYPIR (CYPIR (Rice Flatsedge); 0.2500 kg/ha): 5.0 | Herbicidal rating MOOVA (MOOVA (Monochoria); 0.1250 kg/ha): 3.0 | Herbicidal rating MOOVA (MOOVA (Monochoria); 0.2500 kg/ha): 6.0 | Postemergence herbicidal rating TRZAWR ([6]; Rate 0.0156 kg/ha): 5.0 | Postemergence herbicidal rating TRZAWR ([6]; Rate 0.0313 kg/ha): 5.0 | Postemergence herbicidal rating TRZAWR ([6]; Rate 0.0625 kg/ha): 5.0 | Preemergence herbicidal rating SETVI (SETVI (Foxtail, Green) [7]; rate 0.0156 kg/ha): 0.0 | Preemergence herbicidal rating SETVI (SETVI (Foxtail, Green) [7]; rate 0.0313 kg/ha): 0.0 | Preemergence herbicidal rating SETVI (SETVI (Foxtail, Green) [7]; rate 0.0625 kg/ha): 0.0 | Preemergence herbicidal rating SETVI (SETVI (Foxtail, Green) [7]; rate 0.1250 kg/ha): 0.0 | Preemergence herbicidal rating SETVI (SETVI (Foxtail, Green) [7]; rate 0.2500 kg/ha): 0.0 | Postemergence herbicidal rating SETVI (SETVI (Foxtail, Green) [8]; Rate 0.0156 kg/ha): 0.0 | Postemergence herbicidal rating SETVI (SETVI (Foxtail, Green) [8]; Rate 0.0313 kg/ha): 0.0 | Postemergence herbicidal rating SETVI (SETVI (Foxtail, Green) [8]; Rate 0.0625 kg/ha): 2.0

CC1SC(=Nc2cc(-n3c(=O)cc(C(F)(F)F)n(C)c3=O)c(F)cc2Cl)N(C)C1=O (centres unmarked) [Compound 9]
ABUTH preemergence herbicidal rating (ABUTH (Velvetleaf); rate 0.0156 kg/ha): 9.0 | ABUTH preemergence herbicidal rating (ABUTH (Velvetleaf); rate 0.0313 kg/ha): 9.0 | ABUTH preemergence herbicidal rating (ABUTH (Velvetleaf); rate 0.0625 kg/ha): 9.0 | ABUTH preemergence herbicidal rating (ABUTH (Velvetleaf); rate 0.1250 kg/ha): 9.0 | ABUTH preemergence herbicidal rating (ABUTH (Velvetleaf); rate 0.2500 kg/ha): 9.0 | ZEAMX preemergence herbicidal rating (ZEAMX (Corn, Field); rate 0.0156 kg/ha): 6.7 | ZEAMX preemergence herbicidal rating (ZEAMX (Corn, Field); rate 0.0313 kg/ha): 7.0 | ZEAMX preemergence herbicidal rating (ZEAMX (Corn, Field); rate 0.0625 kg/ha): 8.3 | ZEAMX preemergence herbicidal rating (ZEAMX (Corn, Field); rate 0.1250 kg/ha): 8.7 | ZEAMX preemergence herbicidal rating (ZEAMX (Corn, Field); rate 0.2500 kg/ha): 8.7 | Herbicidal rating ECHORC ([1]; rate 0.0313 kg/ha): 0.0 | Herbicidal rating ECHORC ([1]; rate 0.0625 kg/ha): 2.0 | Herbicidal rating ECHORC ([1]; rate 0.1250 kg/ha): 4.0 | Herbicidal rating ECHORC ([1]; rate 0.2500 kg/ha): 7.0 | Herbicidal rating SAGPY ([2]; rate 0.0313 kg/ha): 0.0 | Herbicidal rating SAGPY ([2]; rate 0.0625 kg/ha): 0.0 | Herbicidal rating SAGPY ([2]; rate 0.1250 kg/ha): 1.0 | Herbicidal rating SAGPY ([2]; rate 0.2500 kg/ha): 2.0 | GALAP herbicidal rating (GALAP (Galium); rate 0.0156 kg/ha): 1.5 | GALAP herbicidal rating (GALAP (Galium); rate 0.0313 kg/ha): 2.5 | GALAP herbicidal rating (GALAP (Galium); rate 0.0625 kg/ha): 4.5 | GALAP herbicidal rating (GALAP (Galium); rate 0.1250 kg/ha): 7.5 | IPOHE preemergence herbicidal rating ([3]; rate 0.0156 kg/ha): 5.0 | IPOHE preemergence herbicidal rating ([3]; rate 0.0313 kg/ha): 7.7 | IPOHE preemergence herbicidal rating ([3]; rate 0.0625 kg/ha): 7.0 | IPOHE preemergence herbicidal rating ([3]; rate 0.1250 kg/ha): 9.0 | IPOHE preemergence herbicidal rating ([3]; rate 0.2500 kg/ha): 9.0 | Herbicidal rating ECHORC ([4]; 0.0313 kg/ha): 0.0 | Herbicidal rating ECHORC ([4]; 0.0625 kg/ha): 2.0 | Herbicidal rating ECHORC ([4]; 0.1250 kg/ha): 4.0 | Herbicidal rating ECHORC ([4]; 0.2500 kg/ha): 7.0 | IPOHE herbicidal rating ([5]; rate 0.0156 kg/ha): 4.0 | IPOHE herbicidal rating ([5]; rate 0.0313 kg/ha): 7.0 | IPOHE herbicidal rating ([5]; rate 0.0625 kg/ha): 9.0 | IPOHE herbicidal rating ([5]; rate 0.1250 kg/ha): 9.0 | ECHCG preemergence herbicidal rating (ECHCG (Barnyardgrass); rate 0.0156 kg/ha): 5.7 | ECHCG preemergence herbicidal rating (ECHCG (Barnyardgrass); rate 0.0313 kg/ha): 8.3 | ECHCG preemergence herbicidal rating (ECHCG (Barnyardgrass); rate 0.0625 kg/ha): 8.7 | ECHCG preemergence herbicidal rating (ECHCG (Barnyardgrass); rate 0.1250 kg/ha): 9.0 | ECHCG preemergence herbicidal rating (ECHCG (Barnyardgrass); rate 0.2500 kg/ha): 9.0 | Herbicidal rating CYPIR (CYPIR (Rice Flatsedge); 0.0313 kg/ha): 0.0 | Herbicidal rating CYPIR (CYPIR (Rice Flatsedge); 0.0625 kg/ha): 2.0 | Herbicidal rating CYPIR (CYPIR (Rice Flatsedge); 0.1250 kg/ha): 4.0 | Herbicidal rating CYPIR (CYPIR (Rice Flatsedge); 0.2500 kg/ha): 6.0 | Herbicidal rating MOOVA (MOOVA (Monochoria); 0.0313 kg/ha): 9.0 | Herbicidal rating MOOVA (MOOVA (Monochoria); 0.0625 kg/ha): 9.0 | Herbicidal rating MOOVA (MOOVA (Monochoria); 0.1250 kg/ha): 9.0 | Herbicidal rating MOOVA (MOOVA (Monochoria); 0.2500 kg/ha): 9.0 | TRZAWR herbicidal rating ([6]; rate 0.0156 kg/ha): 3.3 | TRZAWR herbicidal rating ([6]; rate 0.0313 kg/ha): 3.5 | TRZAWR herbicidal rating ([6]; rate 0.0625 kg/ha): 4.3 | TRZAWR herbicidal rating ([6]; rate 0.1250 kg/ha): 5.0 | SETVI preemergence herbicidal rating (SETVI (Foxtail, Green) [7]; rate 0.0156 kg/ha): 8.3 | SETVI preemergence herbicidal rating (SETVI (Foxtail, Green) [7]; rate 0.0313 kg/ha): 9.0 | SETVI preemergence herbicidal rating (SETVI (Foxtail, Green) [7]; rate 0.0625 kg/ha): 9.0 | SETVI preemergence herbicidal rating (SETVI (Foxtail, Green) [7]; rate 0.1250 kg/ha): 9.0 | SETVI preemergence herbicidal rating (SETVI (Foxtail, Green) [7]; rate 0.2500 kg/ha): 9.0 | SETVI herbicidal rating (SETVI (Foxtail, Green) [8]; rate 0.0156 kg/ha): 1.0 | SETVI herbicidal rating (SETVI (Foxtail, Green) [8]; rate 0.0313 kg/ha): 2.0 | SETVI herbicidal rating (SETVI (Foxtail, Green) [8]; rate 0.0625 kg/ha): 6.5 | SETVI herbicidal rating (SETVI (Foxtail, Green) [8]; rate 0.1250 kg/ha): 9.0
